The test system of one experiment is MCF7 parental cells. The experiment in a line: Western blot of FKBPL and ER protein after 17-β-estradiol. It counts as cell-based. The settings on record: 10^−8M, 24 h, versus DMSO vehicle. As for the experimental part: To determine whether FKBPL itself could be regulated by oestrogen, 2×10^5 MCF7 parental cells were seeded into 35 mm dishes with phenol red-free DMEM+10% charcoal stripped FCS and incubated at 37° C. for 24 h. The medium was replaced with phenol red-free DMEM+10% charcoal-stripped FCS containing DMSO as vehicle control or 10^−8M 17-β-estradiol (Sigma, Cat no. E2758) and incubated for 24 h. Cells were lysed in 250 μl 2× laemmli buffer (Sigma) and subjected to SDS-PAGE electrophoresis using the XCell Surelock Mini-cell system (Invitrogen), transferred onto nitrocellulose membranes, blocked for 1 h at room temperature with 1% skim milk blocking solution and probed with FKBPL rabbit polyclonal (ProteinTech, Cat no. 10060-1-AP) at a dilution of 1:2000, ER rabbit monoclonal (Millipore, Cat no. 07-662) at a dilution of 1:1000 and GAPDH rabbit monoclonal (Sigma, Cat no. G9545) at a dilution of 1:5000. The blot was then probed with corresponding anti-rabbit IgG HRP-linked whole antibody secondary (GE Healthcare, Cat no. NA934V) or anti-mouse IgG HRP-linked whole antibody secondary (GE Healthcare, Cat no. NA931V) at a dilution of 1:10000. Antibody binding was detected using Supersignal West Pico Chemiluminescent Substrate (Pierce, Cat no. 34080).
A general note: In western blotting, separated proteins are transferred to a membrane and probed.

For experiment [1], the system named is MCF7 cells. The experiment in a line: Clonogenic assay, FKBPL-overexpressing MCF7 clones versus parental controls. It counts as cell-based. The following applies: 16 days, colony count. As for the experimental part:
Cells were plated at a density of 500 and 1000 cells/well in a 6-well plate containing DMEM+10% FCS and incubated at 37° C. for 24 h. […] In both experiments, colonies were fixed and stained with 0.4% Crystal Violet/70% methanol then counted.

The test system of experiment [2] is MCF7 cells. The experiment in a line: Clonogenic assay after FKBPL siRNA knockdown versus non-targeting control. It counts as cell-based. The settings on record: 16 days, versus non-targeting siRNA controls. As for the experimental part: MCF7 cells were transfected with siControl non-targeting siRNA #1 (Dharmacon, Cat no. D-001210-01-20) or FKBPL targeted siRNA (Ambion, Cat no. 16104). Briefly, 1×10^5 MCF7 cells were seeded into 35 mm dishes and incubated at 37° C. for 24 h. To transfect, in one tube 6.4 μl of either siControl non-targeting siRNA or FKBPL targeted siRNA (2 μM) was added to 160 μl OptiMEM (Invitrogen) and in another tube 4 μl Oligofectamine (Invitrogen, Cat no. 12252-011) was added to 30 μl OptiMEM. Both tubes were incubated at room temperature for 5 min. Both tube contents were mixed and incubated at room temperature for 20 min. During incubation, 800 μl prewarmed complete DMEM was added to the cells then 200 μl transfection mix was added dropwise and the dishes incubated at 37° C. for 72 h. Cells were then plated at a density of 1000 and 2000 cells/well in a 6-well plate containing DMEM+10% FCS and incubated at 37° C. for 24 h. […] In both experiments, colonies were fixed and stained with 0.4% Crystal Violet/70% methanol then counted.

Experiment [3] concerns oestrogen receptor positive (ER+) patients. The following applies: cited from earlier work.

In the case of `C[C@]12CC[C@@H]3c4ccc(O)cc4CC[C@H]3[C@@H]1CC[C@@H]2O` [17-β-estradiol], in the experiment with MCF7 parental cells, the ER levels entry was “decrease” and the FKBPL protein expression result is listed as “upregulated”.
Consider `C[C@]12CC[C@@H]3c4ccc(O)cc4C[C@@H](CCCCCCCCC[S+]([O-])CCCC(F)(F)C(F)(F)F)[C@H]3[C@@H]1CC[C@@H]2O` (some centres unmarked) [fulvestrant, Fulvestrant], for which the “FKBPL-overexpressing clones more sensitive than parental controls” value in the experiment with MCF7 cells [1] (2.5 nM fulvestrant) is recorded as “up to 99%”. Moreover, the “Resistance of MCF-7 cells after FKBPL knock-down” value in the experiment on MCF7 cells [2] (2.5 nM fulvestrant) was “dramatically increased the resistance”.
On to `CC/C(=C(\c1ccccc1)c1ccc(OCCN(C)C)cc1)c1ccccc1` [tamoxifen, Tamoxifen], for which the “FKBPL-overexpressing cells more sensitive than parental controls” value in the experiment with MCF7 cells [1] (1 μM tamoxifen) is given as “up to 90%”. The “Resistance of MCF-7 cells after FKBPL knock-down” value in the experiment with MCF7 cells [2] (1 μM tamoxifen) is recorded as “dramatically increased the resistance”. Besides, in experiment [3] (ER+ breast cancer patients), the “ER+ patients showing a response” value is “around 60%”. The “ER+ tumours failing to respond to or developing resistance” value in experiment [3] (ER+ tumours (non-responder subjects)) is on record as “up to 40%”.

(Values after patent US9110063B2, “Assay methods for the determination of FKBPL expression level in the context of breast cancer” (The Queen's University of Belfast, priority 2009, dated 2015).)
